Measured values reported in ChEMBL document CHEMBL4219152, “Design, synthesis, biological evaluation, homology modeling and docking studies of (E)-3-(benzo[d][1,3]dioxol-5-ylmethylene) pyrrolidin-2-one derivatives as potent anticonvulsant agents” (Bioorg Med Chem Lett, 2018).
The source made the active and inactive calls. No cut-off for these calls is given here.

What was measured:
[1] = tested on: Mus musculus; test: Anticonvulsant activity in Kunming mouse assessed as protection against subcutaneously injected metrazol-induced seizures at 300 mg/kg, ip after 4 hrs; assay type: functional, organism-based
[2] = tested on: Mus musculus; test: Anticonvulsant activity in Kunming mouse assessed as protection against subcutaneously injected metrazol-induced seizures at 300 mg/kg, ip measured after 0.5 hrs; assay type: functional, organism-based
[3] = tested on: Mus musculus; test: Anticonvulsant activity in Kunming mouse assessed as protection against maximal electroshock-induced seizures in mouse at 300 mg/kg, ip measured after 0.5 hrs; assay type: functional, organism-based
[4] = species on record: Mus musculus; test: Neurotoxicity in Kunming mouse assessed as motor impairment by measuring reduction in time spent on rotarod after 0.5 hrs by rotarod test; assay type: toxicity, organism-based; settings: in vivo
[5] = species on record: Mus musculus; test: Neurotoxicity in Kunming mouse assessed as motor impairment by measuring reduction in time spent on rotarod after 4 hrs by rotarod test; assay type: toxicity, organism-based; settings: in vivo
[6] = tested on: Mus musculus; test: Anticonvulsant activity in ip dosed Kunming mouse assessed as minimum dose required to protect maximal electroshock-induced seizures in mouse measured after 4 hrs; assay type: functional; settings: read-out: MED
[7] = target: Nav1.1 (Homo sapiens, UniProt P35498); test: Inhibition of human Nav1.1 expressed in CHO-K1 cells assessed as state-dependent block at 10 uM at holding potential of -120 mV incubated for 30 mins prior to testing measured every 20 seconds by whole-cell patch clamp method; assay type: cell-based; settings: CHO-K1 cells expressing human Nav1.1
[8] = tested on: Mus musculus; test: Anticonvulsant activity in ip dosed Kunming mouse assessed as minimum dose required to protect maximal electroshock-induced seizures in mouse by measuring time to peak effect; assay type: functional
[9] = tested on: Mus musculus; test: Anticonvulsant activity in ip dosed Kunming mouse assessed as protection against maximal electroshock-induced seizures; assay type: functional
[10] = tested on: Mus musculus; test: Anticonvulsant activity in ip dosed Kunming mouse assessed as minimum dose required to protect maximal electroshock-induced seizures in mouse measured after 0.5 hrs; assay type: functional; settings: read-out: MED
[11] = target: Sodium channel protein type 1 subunit alpha (Homo sapiens) (UniProt P35498); test: Inhibition of human Nav1.1 expressed in CHO-K1 cells assessed as use-dependent block at 10 uM at holding potential of -120 mV incubated for 30 mins prior to testing measured every 20 seconds by whole-cell patch clamp method; assay type: cell-based
[12] = Neurotoxicity in ip dosed Kunming mouse assessed as motor impairment by measuring reduction in time spent on rotarod; assay type: toxicity, organism-based; settings: in vivo
[13] = Protection index, ratio of TD50 for neurotoxicity by motor impairment in Kunming mouse to ED50 for protection against maximal electroshock-induced seizures in ip dosed Kunming mouse; assay type: toxicity, organism-based; settings: in vivo, read-out: Ratio TD50/ED50
[14] = tested on: Mus musculus; test: Anticonvulsant activity in ip dosed Kunming mouse assessed as protection against subcutaneously injected metrazol-induced seizures after 0.5 hrs; assay type: functional; settings: read-out: MED
[15] = tested on: Mus musculus; test: Anticonvulsant activity in Kunming mouse assessed as protection against maximal electroshock-induced seizures in mouse at 300 mg/kg, ip measured after 4 hrs; assay type: functional, organism-based

| Structure (SMILES) | Activity [1] | Activity [2] | Activity [3] | MLD [4] [mg/kg] | MLD [5] [mg/kg] | minimal effective dose [6] [mg/kg] | inhibition at 0.5 h, 10 µM [7] [%] | Time [8] [h] | ED50 [9] [mg/kg] | minimal effective dose [10] [mg/kg] | inhibition [11] [%] | TD50 [12] [mg/kg] | selectivity ratio [13] | minimal effective dose [14] [mg/kg] | Activity [15] |
| --- | --- | --- | --- | --- | --- | --- | --- | --- | --- | --- | --- | --- | --- | --- | --- |
| O=C1/C(=C/c2ccc3c(c2)OCO3)CCN1Cc1cccc(F)c1 | inactive | inactive | inactive | 300 | 300 | 30 | – | – | – | – | – | – | – | – | – |
| O=C1/C(=C/c2ccc3c(c2)OCO3)CCN1Cc1cccc(C(F)(F)F)c1 | inactive | inactive | – | 300 | 300 | 30 | 19.5 | 1 | 4.3 | 30 | 99.9 | 161 | 37.4 | – | – |
| Cc1ccccc1CN1CC/C(=C\c2ccc3c(c2)OCO3)C1=O | inactive | – | inactive | 300 | 300 | 30 | – | – | – | – | – | – | – | 100 | – |
| CC(C)(C)c1ccc(CN2CC/C(=C\c3ccc4c(c3)OCO4)C2=O)cc1 | inactive | inactive | – | 300 | 300 | 100 | – | – | – | 100 | – | – | – | – | – |
| O=C1/C(=C/c2ccc3c(c2)OCO3)CCN1Cc1ccc(F)cc1 | inactive | inactive | – | 300 | 300 | – | – | – | – | 30 | – | – | – | – | inactive |
| O=C1NC(=O)C(c2ccccc2)(c2ccccc2)N1 [PHENYTOIN] | inactive | inactive | – | 100 | 100 | 30 | – | 2 | – | 30 | – | – | – | – | – |
| O=C1/C(=C/c2ccc3c(c2)OCO3)CCN1Cc1ccccc1Cl | inactive | – | inactive | 300 | 300 | – | – | – | – | – | – | – | – | 100 | inactive |
| O=C1/C(=C/c2ccc3c(c2)OCO3)CCN1Cc1ccccc1F | inactive | inactive | – | 300 | 300 | 30 | – | 1 | 5.6 | 30 | – | 238 | 42.6 | – | – |
| O=C1NCC/C1=C\c1ccc2c(c1)OCO2 | inactive | inactive | – | 300 | 300 | 100 | – | 1 | 17.3 | 30 | – | 179 | 10.4 | – | – |
| Cc1ccc(CN2CC/C(=C\c3ccc4c(c3)OCO4)C2=O)cc1 | inactive | inactive | – | 300 | 300 | 30 | – | 1 | 6.3 | 30 | – | 167 | 26.5 | – | – |
| O=C1/C(=C/c2ccc3c(c2)OCO3)CCN1Cc1c(F)cccc1F | inactive | inactive | – | 300 | 300 | 100 | – | – | – | 100 | – | – | – | – | – |
| CCC1(c2ccccc2)C(=O)NC(=O)NC1=O [PHENOBARBITAL] | – | – | – | – | – | – | – | 1 | 21.8 | – | – | – | – | – | – |
